Results: patent US20050244486A1, “Topical methadone compositions and methods for using the same” (priority 2004, published 2005)
Values joined by “and” are separate entries in the source; they are usually repeats but may differ in a detail not shown here. Equal entries are not always repeated. Where two headings read alike, the source gives them in different places.

Assay: Study 2: concentrations of methadone in rat plasma, topical administration versus intravenous injection
Format: in vivo
Description: The test article was administered intravenously (IV) through the tail vein to animals in Group A. The injection was performed slowly. A gauze pad (1×1 cm) Saturated with 0.2 mL of the appropriate test article was applied to the clipped site on the back of the animals in Groups 2 and 3. The gauze pad was secured by occlusive tape. The animal was wrapped in gauze, which was held in place with Zonas porous tape.
Blood Collection: Blood (0.5 mL) was collected into sodium heparin tubes at the appropriate time points. The samples were centrifuged at approximately 2800 rpm at 2-8 degrees Celsius for approximately 15 minutes. Plasma was collected.

SMILES: CCC(=O)C(CC(C)N(C)C)(c1ccccc1)c1ccccc1 (centres unmarked) [Methadone, 6-dimethylamino-4,4-diphenyl-3-hepatone]
- Concentrations of Methadone in Rat Plasma Samples (Study 2 Group B: topical dorsal flank, 1 × 1 cm gauze pad with 0.2 mL Test Article 2 (Methadone-Diisopropyl Adipate Solution 23.9%), 90 min, individual rats B1-B3): 0.0143 µg/mL and 0.0271 µg/mL
- Concentrations of Methadone in Rat Plasma Samples (Study 2 Group B: topical dorsal flank, 1 × 1 cm gauze pad with 0.2 mL Test Article 2 (Methadone-Diisopropyl Adipate Solution 23.9%), 120 min, individual rats B1-B3): 0.0414 µg/mL and 0.0191 µg/mL and 0.0449 µg/mL
- Concentrations of Methadone in Rat Plasma Samples (Study 2 Group B: topical dorsal flank, 1 × 1 cm gauze pad with 0.2 mL Test Article 2 (Methadone-Diisopropyl Adipate Solution 23.9%), 480 min, individual rats B1-B3): 0.159 µg/mL and 0.0467 µg/mL and 0.3 µg/mL
- Concentrations of Methadone in Rat Plasma Samples (Study 2 Group B: topical dorsal flank, 1 × 1 cm gauze pad with 0.2 mL Test Article 2 (Methadone-Diisopropyl Adipate Solution 23.9%), 1440 min, individual rats B1-B3): 0.117 µg/mL and 0.168 µg/mL
- Concentrations of Methadone in Rat Plasma Samples (Study 2 Group B: topical dorsal flank, 1 × 1 cm gauze pad with 0.2 mL Test Article 2 (Methadone-Diisopropyl Adipate Solution 23.9%), 2160 min, individual rats B1-B3): 0.0827 µg/mL and 0.126 µg/mL and 0.0594 µg/mL
- Concentrations of Methadone in Rat Plasma Samples (Study 2 Group B: topical dorsal flank, 1 × 1 cm gauze pad with 0.2 mL Test Article 2 (Methadone-Diisopropyl Adipate Solution 23.9%), 2880 min, individual rats B1-B3): 0.0494 µg/mL and 0.173 µg/mL and 0.034 µg/mL
- Concentrations of Methadone in Rat Plasma Samples (Study 2 Group C: topical dorsal flank, 1 × 1 cm gauze pad with 0.2 mL Test Article 3 (Methadone-DEET Solution 10%), 15 min, individual rats C1-C3): 0.00084 µg/mL and 0.00172 µg/mL and 0.00104 µg/mL
- Concentrations of Methadone in Rat Plasma Samples (Study 2 Group C: topical dorsal flank, 1 × 1 cm gauze pad with 0.2 mL Test Article 3 (Methadone-DEET Solution 10%), 45 min, individual rats C1-C3): 0.00242 µg/mL and 0.00171 µg/mL
- Concentrations of Methadone in Rat Plasma Samples (Study 2 Group C: topical dorsal flank, 1 × 1 cm gauze pad with 0.2 mL Test Article 3 (Methadone-DEET Solution 10%), 90 min, individual rats C1-C3): 0.0047 µg/mL and 0.00289 µg/mL
- Concentrations of Methadone in Rat Plasma Samples (Study 2 Group C: topical dorsal flank, 1 × 1 cm gauze pad with 0.2 mL Test Article 3 (Methadone-DEET Solution 10%), 120 min, individual rats C1-C3): 0.00384 µg/mL and 0.00773 µg/mL and 0.00339 µg/mL
- Concentrations of Methadone in Rat Plasma Samples (Study 2 Group C: topical dorsal flank, 1 × 1 cm gauze pad with 0.2 mL Test Article 3 (Methadone-DEET Solution 10%), 480 min, individual rats C1-C3): 0.018 µg/mL and 0.0296 µg/mL and 0.0143 µg/mL
- Concentrations of Methadone in Rat Plasma Samples (Study 2 Group C: topical dorsal flank, 1 × 1 cm gauze pad with 0.2 mL Test Article 3 (Methadone-DEET Solution 10%), 1440 min, individual rats C1-C3): 0.02 µg/mL and 0.0206 µg/mL
- Concentrations of Methadone in Rat Plasma Samples (Study 2 Group C: topical dorsal flank, 1 × 1 cm gauze pad with 0.2 mL Test Article 3 (Methadone-DEET Solution 10%), 2160 min, individual rats C1-C3): 0.0173 µg/mL and 0.0351 µg/mL and 0.019 µg/mL
- Concentrations of Methadone in Rat Plasma Samples (Study 2 Group C: topical dorsal flank, 1 × 1 cm gauze pad with 0.2 mL Test Article 3 (Methadone-DEET Solution 10%), 2880 min, individual rats C1-C3): 0.0111 µg/mL and 0.0237 µg/mL and 0.0126 µg/mL
- concentration at 45 min (rat, in vivo, 0.2 mL of 10% methadone solution, Study 2 Group C: topical dorsal flank, 1 × 1 cm gauze pad with 0.2 mL Test Article 3 (Methadone-DEET Solution 10%), 45 min, individual rats C1-C3, read-out: Concentrations of Methadone in Rat Plasma Samples): 0.00208 µg/mL
- concentration at 90 min (rat, in vivo, 0.2 mL of 10% methadone solution, Study 2 Group C: topical dorsal flank, 1 × 1 cm gauze pad with 0.2 mL Test Article 3 (Methadone-DEET Solution 10%), 90 min, individual rats C1-C3, read-out: Concentrations of Methadone in Rat Plasma Samples): 0.00317 µg/mL
- concentration at 1440 min (rat, in vivo, 0.2 mL of 10% methadone solution, Study 2 Group C: topical dorsal flank, 1 × 1 cm gauze pad with 0.2 mL Test Article 3 (Methadone-DEET Solution 10%), 1440 min, individual rats C1-C3, read-out: Concentrations of Methadone in Rat Plasma Samples): 0.0278 µg/mL
- concentration at 15 min (rat, in vivo, 0.2 mL of 23.9% methadone solution, Study 2 Group B: topical dorsal flank, 1 × 1 cm gauze pad with 0.2 mL Test Article 2 (Methadone-Diisopropyl Adipate Solution 23.9%), 15 min, individual rats B1-B3, read-out: Concentrations of Methadone in Rat Plasma Samples): 0.00275 µg/mL
- concentration at 90 min (rat, in vivo, 0.2 mL of 23.9% methadone solution, Study 2 Group B: topical dorsal flank, 1 × 1 cm gauze pad with 0.2 mL Test Article 2 (Methadone-Diisopropyl Adipate Solution 23.9%), 90 min, individual rats B1-B3, read-out: Concentrations of Methadone in Rat Plasma Samples): 0.0248 µg/mL
- concentration at 1440 min (rat, in vivo, 0.2 mL of 23.9% methadone solution, Study 2 Group B: topical dorsal flank, 1 × 1 cm gauze pad with 0.2 mL Test Article 2 (Methadone-Diisopropyl Adipate Solution 23.9%), 1440 min, individual rats B1-B3, read-out: Concentrations of Methadone in Rat Plasma Samples): 0.116 µg/mL
- concentration at 2 min (rat, in vivo, iv, 0.125 mg, Study 2 Group A: I.V. tail vein, 0.25 mL Test Article 1 (0.5 mg/mL Methadone-Saline Solution), 2 min, individual rats A1-A3, read-out: Concentrations of Methadone in Rat Plasma Samples): 0.0363 µg/mL
- concentration at 20 min (rat, in vivo, iv, 0.125 mg, Study 2 Group A: I.V. tail vein, 0.25 mL Test Article 1 (0.5 mg/mL Methadone-Saline Solution), 20 min, individual rats A1-A3, read-out: Concentrations of Methadone in Rat Plasma Samples): 0.0559 µg/mL
- concentration at 40 min (rat, in vivo, iv, 0.125 mg, Study 2 Group A: I.V. tail vein, 0.25 mL Test Article 1 (0.5 mg/mL Methadone-Saline Solution), 40 min, individual rats A1-A3, read-out: Concentrations of Methadone in Rat Plasma Samples): 0.0354 µg/mL
- concentration at 60 min (rat, in vivo, iv, 0.125 mg, Study 2 Group A: I.V. tail vein, 0.25 mL Test Article 1 (0.5 mg/mL Methadone-Saline Solution), 60 min, individual rats A1-A3, read-out: Concentrations of Methadone in Rat Plasma Samples): 0.0281 µg/mL
- concentration at 480 min (rat, in vivo, iv, 0.125 mg, Study 2 Group A: I.V. tail vein, 0.25 mL Test Article 1 (0.5 mg/mL Methadone-Saline Solution), 480 min, individual rats A1-A3, read-out: Concentrations of Methadone in Rat Plasma Samples): 0.00154 µg/mL
- concentration at 2160 min (rat, in vivo, iv, 0.125 mg, Study 2 Group A: I.V. tail vein, 0.25 mL Test Article 1 (0.5 mg/mL Methadone-Saline Solution), 2160 min, individual rats A1-A3, read-out: Concentrations of Methadone in Rat Plasma Samples): 0.000796 µg/mL
